Reference: ChEMBL document CHEMBL1201862, “PubChem BioAssay data set” (2004)
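In this assay, cells in 96-well plates receive the compound at five concentrations for 48 hours. Endpoints are linearly interpolated between the surrounding concentrations. Here, GI50 denotes the concentration required for 50% inhibition of growth.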 Calls of active or inactive are those of the source. Rule as the data show it: active = GI50 up to about 1.1 µM and inactive = higher.

How the values were obtained:
Experiment in all cases: DTP human tumour cell line panel, 48 h
[1] = tested on: NCI-H23
[2] = tested on: OVCAR-3
[3] = tested on: SW-620
[4] = tested on: A498
[5] = tested on: NCI/ADR-RES
[6] = tested on: KM12
[7] = tested on: RPMI-8226
[8] = tested on: CAKI-1
[9] = tested on: SNB-75
[10] = tested on: T47D
[11] = tested on: COLO 205
[12] = tested on: UACC-62
[13] = tested on: SF-539
[14] = tested on: OVCAR-8
[15] = tested on: SNB-19
[16] = tested on: NCI-H226
[17] = tested on: 786-0
[18] = tested on: Hs-578T
[19] = tested on: SF-295
[20] = tested on: Malme-3M
[21] = tested on: HCT-116
[22] = tested on: SN12C
[23] = tested on: NCI-H460
[24] = tested on: BT-549
[25] = tested on: HOP-62
[26] = tested on: MCF7
[27] = tested on: SK-MEL-5
[28] = tested on: HOP-92
[29] = tested on: SK-OV-3
[30] = tested on: HT-29
[31] = tested on: TK-10
[32] = tested on: OVCAR-4
[33] = tested on: A549
[34] = tested on: U-251
[35] = tested on: SK-MEL-2
[36] = tested on: SF-268
[37] = tested on: IGROV-1
[38] = tested on: K562
[39] = tested on: UACC-257
[40] = tested on: SR
[41] = tested on: CCRF-CEM
[42] = tested on: MOLT-4
[43] = tested on: HCT-15
[44] = tested on: LOX IMVI
[45] = tested on: MDA-MB-435
[46] = tested on: DU-145
[47] = tested on: EKVX
[48] = tested on: M14
[49] = tested on: MDA-N
[50] = tested on: SK-MEL-28
[51] = tested on: PC-3
[52] = tested on: ACHN
[53] = tested on: RXF 393
[54] = tested on: NCI-H522
[55] = tested on: MDA-MB-231
[56] = tested on: OVCAR-5

Compound: O=C(O)CCN1C(=S)CSC1=S
- GI50 [1]: > 100 µM (inactive)
- GI50 [2]: > 100 µM (inactive)
- GI50 [3]: > 100 µM (inactive)
- GI50 [4]: > 100 µM (inactive)
- GI50 [5]: > 100 µM (inactive)
- GI50 [6]: > 100 µM (inactive)
- GI50 [7]: 54.7 µM (inactive)
- GI50 [8]: > 100 µM (inactive)
- GI50 [9]: > 100 µM (inactive)
- GI50 [10]: > 100 µM (inactive)
- GI50 [11]: > 100 µM (inactive)
- GI50 [12]: > 100 µM (inactive)
- GI50 [13]: > 100 µM (inactive)
- GI50 [14]: > 100 µM (inactive)
- GI50 [15]: > 100 µM (inactive)
- GI50 [16]: > 100 µM (inactive)
- GI50 [17]: > 100 µM (inactive)
- GI50 [18]: > 100 µM (inactive)
- GI50 [19]: > 100 µM (inactive)
- GI50 [20]: > 100 µM (inactive)
- GI50 [21]: > 100 µM (inactive)
- GI50 [22]: > 100 µM (inactive)
- GI50 [23]: 88.1 µM (inactive)
- GI50 [24]: > 100 µM (inactive)
- GI50 [25]: > 100 µM (inactive)
- GI50 [26]: 67.5 µM (inactive)
- GI50 [27]: > 100 µM (inactive)
- GI50 [28]: > 100 µM (inactive)
- GI50 [29]: > 100 µM (inactive)
- GI50 [30]: > 100 µM (inactive)
- GI50 [31]: > 100 µM (inactive)
- GI50 [32]: > 100 µM (inactive)
- GI50 [33]: > 100 µM (inactive)
- GI50 [34]: > 100 µM (inactive)
- GI50 [35]: > 100 µM (inactive)
- GI50 [36]: > 100 µM (inactive)
- GI50 [37]: > 100 µM (inactive)
- GI50 [38]: 78 µM (inactive)
- GI50 [39]: > 100 µM (inactive)
- GI50 [40]: 39.7 µM (inactive)
- GI50 [41]: 44.2 µM (inactive)
- GI50 [42]: 42 µM (inactive)
- GI50 [43]: > 100 µM
- GI50 [44]: 94.4 µM (inactive)
- GI50 [45]: > 100 µM (inactive)
- GI50 [46]: > 100 µM (inactive)
- GI50 [47]: > 100 µM (inactive)
- GI50 [48]: > 100 µM (inactive)
- GI50 [49]: > 100 µM (inactive)
- GI50 [50]: > 100 µM (inactive)
- GI50 [51]: > 100 µM (inactive)
- GI50 [52]: > 100 µM (inactive)
- GI50 [53]: > 100 µM (inactive)
- GI50 [54]: 67.8 µM (inactive)
- GI50 [55]: > 100 µM (inactive)
- GI50 [56]: > 100 µM (inactive)
